Assays:
[1] = tested on: Early passage wild-type PC9 cells; test: Early passage wild-type PC9 culture in EGFR inhibitors; format: cell-based; settings: even at high concentrations
[2] = tested on: EGFR L858R transformed cell population; test: Prototype dual-switch selection drive in vitro (FIG. 3); format: cell-based
Text: The dual-switch drive engineers the evolutionary dynamics of an EGFR L858R transformed cell population in vitro. […] Rimiducid is removed to inactivate switch 1 driven drug resistance in the gene drive cell.

[3] = tested on: mixed-population EGFR+ BaF3 tumors; test: Gene drive in BaF3 tumors in vivo; design: species or system mice; settings: tumors lacking gene drive cells, daily erlotinib
[4] = in vivo; cited from earlier work
[5] = tested on: RET+ thyroid carcinoma TPC1 cells; test: RET gene drive growth tracking in TPC1 mixed populations; format: cell-based, human; settings: absence of gene drive cells, pralsetinib
Experimental: Gene drive growth tracking. Populations of sensitive, mCherry+ resistant, and GFP+ gene drive cells were mixed together. Except where otherwise noted, mixed populations consisted of 0.5% resistant cells and 5% gene drive cells. Cells were seeded in 24-well plates (1.5M/well for BaF3s and 50k/well for adherent cells) in triplicate, with the exception of the gene-drive titer experiment where 3M/well BaF3s were seeded in 6-well plates in order to maintain sufficient cell numbers for low spike-in conditions. […] For Switch 2 conditions, 500 μM 5-FC replaced dimerizer in the above formulations.
Cell counts were measured every other day. For counts of adherent cells, wells were washed with PBS, trypsinized, and then resuspended in RPMI. Cell suspensions were transferred to microcentrifuge tubes, vortexed, and a small aliquot (6%) was analyzed by flow cytometry (BD Accuri) to get subpopulation cell counts. The remaining cells were spun down (1k g for 5 min), the supernatant was aspirated, and the cell pellet was resuspended in fresh RPMI and seeded onto a new plate. Fresh drug was added immediately. In general, Switch 2 treatment began when the gene drive population exceeded 60% of the day 0 cell counts. Cells were monitored for 2-3 weeks after apparent eradication to ensure that no remaining cells grew back.

S1 vEGFRerl BaF3 tumors = test: Engineered Switch 1 BaF3 in vivo model (dimerizer-dependence); design: species or system mice; settings: once-daily dimerizer, range of doses, 12 days
Experimental: Engineered Switch 1 BaF3 in vivo models. All animal experiments were conducted under a protocol approved by the Institutional Animal Care and Use Committee. In the dimerizer-dependence in vivo experiment, S1 vEGFRerl BaF3 cells were subcutaneously grafted on both flanks (3.5M/flank) of NOD-SCID mice (Jackson Labs). Mice were randomized into four arms (0, 0.1, 1, and 10 mg/kg dimerizer) of 3 mice each. Mice received 100 uL dimerizer or vehicle control (2% Tween in PBS) once daily via intraperitoneal injection. Tumor volumes were measured with calipers following 12 days of treatment.

[6] = tested on: mixed-population PC9 tumors; test: Gene drive in PC9 tumors in vivo
Experimental: To test this, mixtures of 50% gene drive and 50% resistant PC9 cells were generated to reflect a possible population structure at the beginning of Switch 2. These pooled populations were grafted in mice. The mice were then treated with Switch 2 drugs (osimertinib and 5-FC) with or without concurrent Switch 1 engagement (dimerizer).
Finally, these findings were performed in a full-term gene drive experiment in vivo.

S1 vEGFRerl BaF3 cells = test: BaF3 dimerizer-dependence assay (growth rate); format: cell-based, murine; settings: absence of IL-3; range of dimerizer concentrations
Experimental: BaF3 dimerizer-dependence assays. S1 vEGFRerl BaF3s were seeded in 12-well plates at 100k/well with dimerizer (AP20187, Takara) in triplicate. Cell counts were measured on a hemocytometer every day for four days, and an exponential curve was fit to the data to estimate growth rates.

[7] = tested on: S1 vEGFRerl EGFR+ NSCLC PC9 cells; test: Erlotinib dose response in Switch 1 PC9 cells; format: cell-based, human; settings: erlotinib with or without dimerizer
Experimental: Drug dose response assays. In general, all 1C50 measurements were conducted similarly. Cells were seeded in 96-well plates at 3k/well triplicate. Adherent cells were given 24 hours before the addition of drug. Cell viability was measured three days after drug treatment using CellTiter-Glo 2.0 (Promega) and luminescence values were normalized to vehicle control conditions.

[8] = tested on: phospho-EGFR and phospho-ERK; test: Immunoblotting of EGFR/MAPK signaling in PC9 cells; format: cell-based, human; settings: erlotinib-treated S1 vEGFRerl PC9 cells, dimerizer added
[9] = tested on: PC9 cells transduced with EGFR variant library; format: cell-based, human
[10] = tested on: pooled sensitive, resistant and immune gene drive PC9 cells; test: Immune gene drive growth tracking in PC9 mixed populations; format: cell-based, human; settings: lacking gene drive cells
CRISPRko PC9 population = format: cell-based, human
[11] = tested on: EGFR+ BaF3 tumors expressing S2 vCyD; test: In vivo cytosine deaminase activity; design: species or system mice; settings: daily dosing of 5-FC
Experimental: In vivo cytosine deaminase activity. Mice were randomized into three arms (five mice/arm).
Tumors were allowed to grow for 12 days, and then once-daily treatment was initiated. The wild-type arm and one of the S2 vCyD arms received 800 uL 500 mg/kg 5-FC via ip injection. The second S2 vCyD arm received 800 uL vehicle control (sterile PBS). Tumor volumes were measured every other day.

[12] = tested on: RET fusion driven cancer cell line; test: Switch 2 sensitivity of cancer cell lines (RET line); format: cell-based
Text: (§1) Personalize switch 2 designs for different NSCLC tumors. Quantitative models (FIG. 5) have identified the extent of switch 2 bystander driven killing as a key factor in gene drive success. This effect is larger in from spatial systems (2D/3D) (FIG. 10). Pharmacologically, the toxin responsible for the bystander effect must be diffusible and have a half-life on the order of hours to be evolutionarily useful. Prototypes used here meet these transport constraints, but some cancer cell types display differential biological sensitivity to distinct switch 2 metabolites. […] Cell and organoid type specificity in Switch 2 designs is assessed in a larger number of genetically defined NSCLC cell line (FIGS. 8 and 10).

PC9 cell line = test: Switch 2 sensitivity of cancer cell lines (PC9); format: cell-based
Text: as §1

[13] = tested on: mixed wild-type and S2 vCyD BaF3 cells; test: Enzyme-prodrug bystander assay (vCyD, BaF3); format: cell-based, murine; settings: 1 mM 5-FC
Experimental: Enzyme-prodrug bystander assays (vCyD and vNfsA). To evaluate the S2 vCyD system, populations of wild-type and cytosine deaminase-expressing BaF3 cells were mixed at defined ratios and seeded at 30k/well in 96-well plates in triplicate, and 1 mM 5-FC was added. Cell viability was measured after 48 hours using CellTiter-Glo and normalized to untreated controls. Similarly, wild-type and S1vEGFRosi-S2vCyD PC9 cells were mixed, seeded at 20k/well, and treated with 1 mM 5-FC.

[14] = tested on: CD19+ and CD19- PC9 cells; test: Immune bystander assay (vCD19); format: cell-based, human; settings: co-culture with primary T cells and blinatumomab
Experimental: Immune bystander assays (vCD19). PBMCs were sourced from Astarte and T cells were expanded using CD3/CD28 dynabeads (1:100 bead: cell ratio). For the immune bystander experiments, CD19+ and CD19-PC9 cells were seeded 1:1 in 24 wells plates at 60k/well. After 24 hours, 1 ng/mL blinatumomab was added to all wells. At the same time, freshly-thawed T cells were added at the appropriate concentration. Each target: effector ratio was conducted in triplicate. After 48 hours, the supernatant and resuspended adherent cells were pooled and analyzed according to the following staining protocol. Cells were spun down (750 g for 3 min) and resuspended in 50 uL Fc block buffer. After a 10 minute incubation, 100 uL antibody mixture (anti-CD3/FITC and anti-CD19/APC) was added. The cell suspension was incubated at 4C for 20 minutes. After three washes in PBS with 1% BSA, the cell suspension was analyzed by flow cytometry.

C#Cc1cccc(Nc2ncnc3cc(OCCOC)c(OCCOC)cc23)c1 [erlotinib]
population response [1]: initial regression followed by rapid outgrowth
effect on sensitive EGFR-L858R+ transformed cells [2]: killed
tumor dynamics [3]: initially regressed and then relapsed

CC[C@H](C(=O)N1CCCC[C@H]1C(=O)O[C@H](CCc1ccc(OC)c(OC)c1)c1cccc(OCC(=O)NCCNC(=O)COc2cccc([C@@H](CCc3ccc(OC)c(OC)c3)OC(=O)[C@@H]3CCCCN3C(=O)[C@@H](CC)c3cc(OC)c(OC)c(OC)c3)c2)c1)c1cc(OC)c(OC)c(OC)c1 [rimiducid]
clinical exposure [4]: 0.1 to 1000 nM
effect of rimiducid-induced gene drive population on pre-existing resistance ([2]; switch 1, erlotinib maintained): inhibits the growth of pre-existing resistance

CO[C@]1(C(=O)N[C@@H](C)c2ccc(-n3cc(F)cn3)nc2)CC[C@H](c2nc(C)cc(Nc3cc(C)[nH]n3)n2)CC1 [pralsetinib]
outcome of mixed population [5]: selected for pre-existing G810R resistance

CC[C@H](C(=O)N1CCCC[C@H]1C(=O)O[C@H](CCc1ccc(OC)c(OC)c1)c1cccc(OCC(=O)NCC(CNC(=O)COc2cccc([C@@H](CCc3ccc(OC)c(OC)c3)OC(=O)[C@@H]3CCCCN3C(=O)[C@@H](CC)c3cc(OC)c(OC)c(OC)c3)c2)CN(C)C)c1)c1cc(OC)c(OC)c(OC)c1 [dimerizer]
tumor growth (S1 vEGFRerl BaF3 tumors): stimulated tumor growth
time to progression ([6]; 50% gene drive/50% resistant, osimertinib and 5-FC with temporary dimerizer vs without): exhibited a longer time to progression
growth of S1 vEGFRerl BaF3 cells (S1 vEGFRerl BaF3 cells): Stimulated growth
inducible drug resistance phenotype [7]: causes inducible drug resistance
MAPK signaling (western blot) [8]: rescues MAPK signaling

C=CC(=O)Nc1cc(Nc2nccc(-c3cn(C)c4ccccc34)n2)c(OC)cc1N(C)CCN(C)C [osimertinib]
tumor response ([6]; mouse, in vivo): eventually became refractory to osimertinib treatment
time of treatment to osimertinib resistance [9]: 2-3 weeks
outcome of mixed population [10]: Resistance emerged
population response [1]: initial regression followed by rapid outgrowth
population dynamics (CRISPRko PC9 population): initial decrease in population size, followed by the outgrowth of resistance

Nc1nc(=O)[nH]cc1F [5-FC]
tumor response [11]: rapid tumor regression
sensitivity to cytosine deaminase->5-FC pair [12]: highly sensitive
sensitivity to cytosine deaminase>5-FC pair (PC9 cell line): more modestly sensitive
killing in mixed cultures (bystander effect) [13]: significantly higher killing than expected
effect on resistant population when switch 2 is induced ([2]; 5-FC added, rimiducid removed, erlotinib maintained): kills the resistant population

blinatumomab: bispecific CD3/CD19 T cell engager
effect on S2 vCD19 (antigen-positive) cells [14]: targeted by the T cells
effect on wild-type, antigen-negative cells (immune bystander activity) [14]: affected as well

— patent US20250228971A1, “DESIGN AND CONSTRUCTION OF EVOLUTIONARY-GUIDED "SELECTION GENE DRIVE" THERAPY” (THE PENN STATE RESEARCH FOUNDATION, priority 2022, published 2025)
